Experimental data taken from patent US12545673B2, “Imidazopyridine derivative and pharmaceutical composition comprising same as active ingredient” (TSD LIFE SCIENCES CO., LTD., priority 2019, dated 2026).
Like-named read-outs stand apart in the source and are kept apart here. Each block holds one compound with its values, some of them ahead of it.

Columns and labels:
[1] = test system: acute lymphoblastic leukemia cell line Jurkat; assay: Cancer cell proliferation inhibitory activity evaluation 2 (CCK-8), Jurkat; format: cell-based; conditions: Homo sapiens
[2] = test system: chronic myeloid leukemia cell line K562; assay: Cancer cell proliferation inhibitory activity evaluation 1 (CCK-8), K562; format: cell-based; conditions: Homo sapiens, K562; 10 μM, 72 hours, CCK-8; read-out: Cancer cell proliferation inhibitory activity K562
Description: (§1) In order to identify whether the compound has anticancer activity, the human breast cancer cell line MDA-MB-231, the colorectal cancer cell line HT-29, the acute myeloid leukemia cell line U937, and the chronic myeloid leukemia cell line K562 were used. The cell line was cultured using RPMI-1640 medium containing 10% fetal bovine serum. Welgene products were used as the medium, and hyclone products were used for fetal bovine serum, and 1% of antibiotics for cell culture from Gibco were used as the culture medium.

[3] = test system: gastric cancer cell line AGS; assay: Cancer cell proliferation inhibitory activity evaluation 2 (CCK-8), AGS; format: cell-based; conditions: Homo sapiens, read-out: Cancer cell proliferation inhibitory activity AGS
[4] = test system: acute myeloid leukemia cell line U937; assay: Cancer cell proliferation inhibitory activity evaluation 1 (CCK-8), U937; format: cell-based; conditions: Homo sapiens, U-937; 10 μM, 72 hours, CCK-8 (Table 2); read-out: Cancer cell proliferation inhibitory activity U937
Description: as §1

MLK3 = MLK3 (Homo sapiens (Human), UniProt Q16584); assay: Evaluation of inhibitory activity of enzyme units, MLK3 ([γ-33P]-ATP filter assay)
[5] = test system: acute myeloid leukemia cell line U937; assay: Cancer cell proliferation inhibitory activity evaluation 2 (CCK-8), U937; format: cell-based; conditions: Homo sapiens, read-out: Cancer cell proliferation inhibitory activity U937
[6] = test system: colorectal cancer cell line HT-29; assay: Cancer cell proliferation inhibitory activity evaluation 1 (CCK-8), HT-29; format: cell-based; conditions: Homo sapiens, HT-29; 10 μM, 72 hours, CCK-8; read-out: Cancer cell proliferation inhibitory activity HT29
Description: as §1

[7] = test system: human breast cancer cell line MDA-MB-231; assay: Cancer cell proliferation inhibitory activity evaluation 1 (CCK-8), MDA-MB-231; format: cell-based; conditions: MDA-MB-231, 10 μM, 72 hours, CCK-8, read-out: Cancer cell proliferation inhibitory activity MDAMB231
Description: as §1

[8] = test system: human lung cancer cell line A549; assay: Cancer cell proliferation inhibitory activity evaluation 2 (CCK-8), A549; format: cell-based
Description: (§2) In order to identify whether the compounds have anticancer activity, the acute myeloid leukemia cell line U937, the acute lymphoblastic leukemia cell line Jurkat, the gastric cancer cell lines AGS, […], and the human lung cancer cell line A549 were used. The cell line was cultured using RPMI-1640 medium (U937, Jurkat, AGS, A549) or DMEM (Hs746T) medium containing 10% fetal bovine serum. Welgene products were used as the medium, and hyclone products were used for fetal bovine serum, and 1% of antibiotics for cell culture from Gibco were used as the culture medium.

LRRK2 mutant (G2019S) = LRRK2 mutant (G2019S) (Homo sapiens (Human), UniProt Q5S007, G2019S); assay: Evaluation of inhibitory activity against LRRK2 (affinity bead competition binding), G2019S mutant; conditions: read-out: Residual active values (%) LRRK2(G2019S); for remaining binding at 0.1 µM: 100 nM; for remaining binding at 0.5 µM: 500 nM
Description: (§3) In order to identify the activity inhibitory effect on the LRRK2 wild-type and LRRK2 mutant (G2019S) kinase of the example compound according to the present disclosure, BL21-derived E. coli bacteria (E. coli) were cultured in a 24-well plate until the growth phase (log phase). After culturing, T7 phage tagged with LRRK2 wild-type or LRRK2 mutant (G2019S) was used to infect the multiplicity of infection (MOI) at 0.4. Thereafter, the E. coli bacteria were stirred at 32° C. for 90 to 150 minutes to allow dissolution. The lysate of E. coli bacteria was centrifuged (6,000×g) and filtered (0.2 μm), and the obtained tagged T7 phage […] a DNA-tagged kinase protein (LRRK2 or LRRK2 G2019S) was obtained.
(§4) After blocking the biotinylated ligand with extra biotin, it is washed with Pierce's buffer, SeaBlock (1% BSA, 0.05% Tween 20, 1 mM DTT) to remove unbound ligand and reduce non-specific binding.
(§5) The compound was prepared at a concentration of 40× in 100% DMSO and used after dilution, and all binding reactions were performed in a final volume of 0.02 ml in a 384-well plate.
(§6) The activity inhibitory effect on the LRRK2 wild-type and LRRK2 mutant (G2019S) kinases of the example compounds according to the present disclosure was measured and shown in Table 10 below.

LRRK2 wild-type = LRRK2 wild-type (Homo sapiens (Human), UniProt Q5S007); assay: Evaluation of inhibitory activity against LRRK2 (affinity bead competition binding), wild-type; conditions: read-out: Residual active values (%) LRRK2; for remaining binding at 0.1 µM: 100 nM; for remaining binding at 0.5 µM: 500 nM
Description: as §3, §4, §5, §6

MLK1 = MLK1 (Homo sapiens (Human), UniProt P80192); assay: Evaluation of inhibitory activity of enzyme units, MLK1 ([γ-33P]-ATP filter assay); format: biochemical
[9] = test system: gastric cancer cell line Hs746T; assay: Cancer cell proliferation inhibitory activity evaluation 2 (CCK-8), Hs746T; format: cell-based; conditions: Homo sapiens
Description: as §2

[10] = 10 μM, 72 hours, CCK-8, read-out: Cancer cell proliferation inhibitory activity Jurkat
[11] = U-937, 10 μM, 72 hours, CCK-8 (Table 3)
[12] = A549, 10 μM, 72 hours, CCK-8, read-out: Cancer cell proliferation inhibitory activity A549
[13] = 10 μM, 72 hours, CCK-8, read-out: Cancer cell proliferation inhibitory activity Hs746T

Chain of MLK3 (Q16584 whole entry, looked up): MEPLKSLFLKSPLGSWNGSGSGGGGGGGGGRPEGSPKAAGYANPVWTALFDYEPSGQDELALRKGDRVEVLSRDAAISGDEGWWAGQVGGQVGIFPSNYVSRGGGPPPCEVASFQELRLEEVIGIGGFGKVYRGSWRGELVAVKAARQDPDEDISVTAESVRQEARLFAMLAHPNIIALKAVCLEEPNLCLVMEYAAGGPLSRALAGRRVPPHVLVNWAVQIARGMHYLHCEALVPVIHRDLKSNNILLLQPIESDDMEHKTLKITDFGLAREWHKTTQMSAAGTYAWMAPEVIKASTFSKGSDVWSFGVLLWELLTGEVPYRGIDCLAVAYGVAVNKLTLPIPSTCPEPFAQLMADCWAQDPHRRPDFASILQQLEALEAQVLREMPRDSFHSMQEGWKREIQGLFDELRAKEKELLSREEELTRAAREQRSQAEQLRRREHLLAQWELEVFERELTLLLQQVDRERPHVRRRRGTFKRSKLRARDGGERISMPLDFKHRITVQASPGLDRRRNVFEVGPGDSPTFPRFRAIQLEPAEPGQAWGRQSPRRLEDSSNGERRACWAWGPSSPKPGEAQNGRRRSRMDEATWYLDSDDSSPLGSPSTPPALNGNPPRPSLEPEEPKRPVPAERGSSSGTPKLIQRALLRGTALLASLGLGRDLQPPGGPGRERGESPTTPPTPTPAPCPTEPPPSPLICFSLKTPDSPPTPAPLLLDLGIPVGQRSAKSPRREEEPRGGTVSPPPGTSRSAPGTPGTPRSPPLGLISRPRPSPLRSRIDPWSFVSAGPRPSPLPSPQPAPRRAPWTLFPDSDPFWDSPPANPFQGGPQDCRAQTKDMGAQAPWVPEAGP
Chain of LRRK2 wild-type (Q5S007 whole entry, looked up): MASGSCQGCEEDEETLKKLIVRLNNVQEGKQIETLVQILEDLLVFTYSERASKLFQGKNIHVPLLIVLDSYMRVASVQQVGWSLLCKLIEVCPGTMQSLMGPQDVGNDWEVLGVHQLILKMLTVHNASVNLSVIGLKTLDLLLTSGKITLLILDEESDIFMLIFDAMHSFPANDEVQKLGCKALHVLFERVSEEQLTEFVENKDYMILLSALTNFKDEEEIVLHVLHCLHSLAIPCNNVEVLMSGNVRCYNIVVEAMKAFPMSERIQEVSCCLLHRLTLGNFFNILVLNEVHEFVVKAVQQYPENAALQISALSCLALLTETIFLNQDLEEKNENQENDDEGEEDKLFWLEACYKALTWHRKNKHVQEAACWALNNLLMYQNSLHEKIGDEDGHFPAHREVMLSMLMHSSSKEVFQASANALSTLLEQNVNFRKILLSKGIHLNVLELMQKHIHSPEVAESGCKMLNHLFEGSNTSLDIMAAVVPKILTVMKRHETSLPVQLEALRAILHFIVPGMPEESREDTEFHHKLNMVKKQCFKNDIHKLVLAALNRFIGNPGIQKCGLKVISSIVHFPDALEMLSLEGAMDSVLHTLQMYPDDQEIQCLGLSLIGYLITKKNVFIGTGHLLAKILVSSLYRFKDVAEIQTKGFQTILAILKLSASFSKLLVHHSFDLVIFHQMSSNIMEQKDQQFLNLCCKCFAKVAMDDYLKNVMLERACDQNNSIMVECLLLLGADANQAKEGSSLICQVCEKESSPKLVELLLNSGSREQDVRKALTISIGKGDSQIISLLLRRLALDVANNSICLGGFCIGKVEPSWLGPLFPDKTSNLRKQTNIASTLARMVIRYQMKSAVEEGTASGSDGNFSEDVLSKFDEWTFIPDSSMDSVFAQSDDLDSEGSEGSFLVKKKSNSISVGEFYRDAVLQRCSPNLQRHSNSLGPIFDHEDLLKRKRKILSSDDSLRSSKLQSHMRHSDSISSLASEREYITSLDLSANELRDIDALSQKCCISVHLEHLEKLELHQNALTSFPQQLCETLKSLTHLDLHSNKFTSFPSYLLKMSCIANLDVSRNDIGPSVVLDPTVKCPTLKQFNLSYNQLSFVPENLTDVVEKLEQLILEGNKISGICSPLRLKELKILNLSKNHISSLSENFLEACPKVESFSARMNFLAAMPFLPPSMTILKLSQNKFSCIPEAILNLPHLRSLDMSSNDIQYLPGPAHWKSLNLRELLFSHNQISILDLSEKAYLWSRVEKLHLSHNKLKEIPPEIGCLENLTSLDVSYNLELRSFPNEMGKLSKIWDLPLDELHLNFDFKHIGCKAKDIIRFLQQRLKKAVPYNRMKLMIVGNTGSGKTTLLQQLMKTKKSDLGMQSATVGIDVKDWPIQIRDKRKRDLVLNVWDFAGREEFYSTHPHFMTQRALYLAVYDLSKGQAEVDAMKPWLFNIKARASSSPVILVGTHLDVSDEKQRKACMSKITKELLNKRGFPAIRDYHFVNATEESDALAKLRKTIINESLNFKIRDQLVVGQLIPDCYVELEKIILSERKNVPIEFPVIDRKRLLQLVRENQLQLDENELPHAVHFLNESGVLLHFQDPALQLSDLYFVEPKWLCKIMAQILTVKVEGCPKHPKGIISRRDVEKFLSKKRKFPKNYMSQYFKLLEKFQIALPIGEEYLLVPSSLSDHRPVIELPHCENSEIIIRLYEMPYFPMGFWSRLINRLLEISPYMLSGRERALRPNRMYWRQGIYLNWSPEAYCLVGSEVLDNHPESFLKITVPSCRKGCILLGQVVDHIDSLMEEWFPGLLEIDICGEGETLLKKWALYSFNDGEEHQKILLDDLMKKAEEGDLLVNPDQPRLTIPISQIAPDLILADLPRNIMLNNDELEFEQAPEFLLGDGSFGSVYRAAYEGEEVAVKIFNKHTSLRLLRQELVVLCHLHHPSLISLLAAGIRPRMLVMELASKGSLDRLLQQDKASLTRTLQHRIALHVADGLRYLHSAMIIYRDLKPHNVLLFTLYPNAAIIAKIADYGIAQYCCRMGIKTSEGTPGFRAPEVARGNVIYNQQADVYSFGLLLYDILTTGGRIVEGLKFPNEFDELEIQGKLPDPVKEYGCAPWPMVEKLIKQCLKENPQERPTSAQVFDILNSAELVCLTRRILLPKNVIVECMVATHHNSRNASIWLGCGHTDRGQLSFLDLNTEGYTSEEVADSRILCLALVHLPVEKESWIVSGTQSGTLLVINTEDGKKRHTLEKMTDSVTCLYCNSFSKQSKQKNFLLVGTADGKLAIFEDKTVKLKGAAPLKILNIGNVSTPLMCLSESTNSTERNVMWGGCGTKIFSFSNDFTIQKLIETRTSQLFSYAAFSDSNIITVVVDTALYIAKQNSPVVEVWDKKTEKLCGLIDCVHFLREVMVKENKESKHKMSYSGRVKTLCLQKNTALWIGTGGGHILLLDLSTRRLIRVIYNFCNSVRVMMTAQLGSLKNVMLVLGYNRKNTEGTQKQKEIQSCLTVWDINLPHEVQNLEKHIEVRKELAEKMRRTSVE
Chain of LRRK2 mutant (G2019S) (Q5S007 whole entry G2019S, looked up): as the sequence (Q5S007 whole entry, looked up) above, with G2019S counted along it
Chain of MLK1 (P80192 whole entry, looked up): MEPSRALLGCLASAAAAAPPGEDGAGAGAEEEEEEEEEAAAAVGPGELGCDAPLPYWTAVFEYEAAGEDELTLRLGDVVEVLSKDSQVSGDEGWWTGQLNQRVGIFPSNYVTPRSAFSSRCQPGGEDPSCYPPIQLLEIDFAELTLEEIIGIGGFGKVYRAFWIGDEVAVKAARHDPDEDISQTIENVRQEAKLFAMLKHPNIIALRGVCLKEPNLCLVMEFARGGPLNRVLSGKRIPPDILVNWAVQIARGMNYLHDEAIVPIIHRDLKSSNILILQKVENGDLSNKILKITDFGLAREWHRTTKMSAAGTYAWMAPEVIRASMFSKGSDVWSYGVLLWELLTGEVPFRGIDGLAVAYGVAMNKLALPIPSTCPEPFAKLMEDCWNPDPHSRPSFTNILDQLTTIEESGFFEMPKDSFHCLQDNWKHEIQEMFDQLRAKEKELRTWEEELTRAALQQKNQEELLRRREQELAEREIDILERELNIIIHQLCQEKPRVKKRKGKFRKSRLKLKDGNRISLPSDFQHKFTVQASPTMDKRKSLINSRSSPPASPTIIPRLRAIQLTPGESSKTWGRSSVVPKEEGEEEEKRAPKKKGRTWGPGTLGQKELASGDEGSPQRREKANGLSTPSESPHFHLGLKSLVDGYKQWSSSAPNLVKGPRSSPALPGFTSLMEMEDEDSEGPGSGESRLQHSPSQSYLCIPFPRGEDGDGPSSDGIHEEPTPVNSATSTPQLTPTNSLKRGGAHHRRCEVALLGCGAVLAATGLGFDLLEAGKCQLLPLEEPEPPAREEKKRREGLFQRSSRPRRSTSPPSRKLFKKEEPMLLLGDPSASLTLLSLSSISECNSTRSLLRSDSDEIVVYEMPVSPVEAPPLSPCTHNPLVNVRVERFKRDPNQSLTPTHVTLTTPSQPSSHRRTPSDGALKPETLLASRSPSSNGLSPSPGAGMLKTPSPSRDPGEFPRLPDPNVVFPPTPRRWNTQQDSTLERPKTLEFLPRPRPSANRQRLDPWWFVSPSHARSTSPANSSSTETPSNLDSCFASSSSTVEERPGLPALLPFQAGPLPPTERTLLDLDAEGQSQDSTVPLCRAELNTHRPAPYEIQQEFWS

Compound: Cc1cc(-c2nc3c(Nc4cccc(S(N)(=O)=O)c4)c(Br)cnc3[nH]2)c(C)n1-c1ccccc1Cl [Example 31, 3-((6-bromo-2-(1-(2-chlorophenyl)-2,5-dimethyl-1H-pyrrol-3-yl)-3H-imidazo[4,5-b]pyridine-7-yl)amino)benzenesulfonamide]
inhibition at 10 µM [1, 10]: 10 to 50%
inhibition at 10 µM [2]: 10 to 50%
inhibition at 10 µM ([3]; 10 μM, 72 hours, CCK-8): 10 to 50%
inhibition at 10 µM [4]: 10 to 50%
IC50 (MLK3; read-out: IC50(nM) MLK3): 35 nM
inhibition at 10 µM [5, 11]: 10 to 50%
inhibition at 10 µM [6]: > 50%
inhibition at 10 µM [7]: < 10%

Compound: Cc1cc(-c2nc3c(Nc4cccc(S(N)(=O)=O)c4)c(Br)cnc3[nH]2)c(C)n1-c1c(Cl)cccc1Cl [Example 26, 3-((6-bromo-2-(1-(2,6-dichlorophenyl)-2,5-dimethyl-1H-pyrrol-3-yl)-3H-imidazo[4,5-b]pyridine-7-yl)amino)benzenesulfonamide]
inhibition at 10 µM [1, 10]: 10 to 50%
inhibition at 10 µM [2]: < 10%
inhibition at 10 µM ([3]; 10 μM, 72 hours, CCK-8): 10 to 50%
inhibition at 10 µM [4]: 10 to 50%
IC50 (MLK3; read-out: IC50(nM) MLK3): 19 nM
inhibition at 10 µM [5, 11]: 10 to 50%
inhibition at 10 µM [6]: 10 to 50%
inhibition at 10 µM [7]: 10 to 50%

Compound: Cc1ccc(NS(C)(=O)=O)cc1-n1c(C)cc(-c2nc3c(Nc4cccc(S(N)(=O)=O)c4)c(Br)cnc3[nH]2)c1C [Example 33, 3-((6-bromo-2-(2,5-dimethyl-1-(2-methyl-5-(methylsulfonamido)phenyl)-1H-pyrrol-3-yl)-3H-imidazo[4,5-b]pyridine-7-yl)amino)benzenesulfonamide]
inhibition at 10 µM [1, 10]: 10 to 50%
inhibition at 10 µM [2]: < 10%
inhibition at 10 µM ([3]; 10 μM, 72 hours, CCK-8): 10 to 50%
inhibition at 10 µM [4]: 10 to 50%
IC50 (MLK3; read-out: IC50(nM) MLK3): 38 nM
inhibition at 10 µM [5, 11]: < 10%
inhibition at 10 µM [6]: < 10%
inhibition at 10 µM [7]: 10 to 50%

IC50 (MLK3): 11 nM
Compound: CCS(=O)(=O)N1CC[C@H](Nc2c(Br)cnc3[nH]c(-c4cc(C)n(-c5ccccc5Cl)c4C)nc23)C1 [Example 16, 6-bromo-2-(1-(2-chlorophenyl)-2,5-dimethyl-1H-pyrrol-3-yl)-N—((S)-1-(ethylsulfonyl)pyrrolidine-3-yl)-3H-imidazo[4,5-b]pyridine-7-amine]
inhibition at 10 µM [1, 10]: 10 to 50%
inhibition at 10 µM [2]: > 50%
inhibition at 10 µM ([3]; 10 μM, 72 hours, CCK-8): 10 to 50%
inhibition at 10 µM [4]: > 50%
inhibition at 10 µM [5, 11]: < 10%
inhibition at 10 µM [6]: 10 to 50%
inhibition at 10 µM [7]: 10 to 50%

Compound: Cc1cc(-c2nc3ncc(Br)c(Nc4cccc(S(N)(=O)=O)c4)c3[nH]2)c(C)n1-c1ccc(OCCN2CCOCC2)cc1 [Example 39, 3-((6-bromo-2-(2,5-dimethyl-1-(4-(2-morpholinoethoxy)phenyl)-1H-pyrrol-3-yl)-1H-imidazo[4,5-b]pyridine-7-yl)amino)benzenesulfonamide]
inhibition at 10 µM [1, 10]: > 50%
inhibition at 10 µM [2]: 10 to 50%
inhibition at 10 µM ([3]; 10 μM, 72 hours, CCK-8): > 50%
inhibition at 10 µM [4]: < 10%
IC50 (MLK3; read-out: IC50(nM) MLK3): 72 nM
inhibition at 10 µM [5, 11]: 10 to 50%
inhibition at 10 µM [6]: 10 to 50%
inhibition at 10 µM [7]: 10 to 50%

IC50 (MLK3): 17 nM
Compound: CCS(=O)(=O)N1CC[C@H](Nc2c(Br)cnc3[nH]c(-c4cc(C)n(-c5cc(Cl)ccc5Cl)c4C)nc23)C1 [Example 14, 6-bromo-2-(1-(2,5-dichlorophenyl)-2,5-dimethyl-1H-pyrrol-3-yl)-N—((S)-1-(ethylsulfonyl)pyrrolidine-3-yl)-3H-imidazo[4,5-b]pyridine-7-amine]
inhibition at 10 µM [1, 10]: 10 to 50%
inhibition at 10 µM [2]: < 10%
inhibition at 10 µM ([3]; 10 μM, 72 hours, CCK-8): 10 to 50%
inhibition at 10 µM [4]: 10 to 50%
inhibition at 10 µM [5, 11]: 10 to 50%
inhibition at 10 µM [6]: 10 to 50%
inhibition at 10 µM [7]: < 10%

Compound: Cc1ccc(C(=O)N2CCOCC2)cc1-n1c(C)cc(-c2nc3ncc(Br)c(Nc4cccc(S(N)(=O)=O)c4)c3[nH]2)c1C [Example 94, 3-((6-bromo-2-(2,5-dimethyl-1-(2-methyl-5-(morpholine-4-carbonyl)phenyl)-1H-pyrrol-3-yl)-1H-imidazo[4,5-b]pyridine-7-yl)amino)benzenesulfonamide]
inhibition at 10 µM [1, 10]: 10 to 50%
inhibition at 10 µM [8, 12]: < 10%
remaining binding at 0.1 µM (LRRK2 mutant (G2019S)): 59%
remaining binding at 0.5 µM (LRRK2 mutant (G2019S)): 16%
remaining binding at 0.1 µM (LRRK2 wild-type): 70%
remaining binding at 0.5 µM (LRRK2 wild-type): 40%
inhibition at 10 µM ([3]; 10 μM, 72 hours, CCK-8): 10 to 50%
IC50 (MLK3; read-out: IC50(nM) MLK3): 73 nM
inhibition at 10 µM [5, 11]: 10 to 50%
IC50 (MLK1): 52 nM
inhibition at 10 µM [9, 13]: > 50%

remaining binding at 0.1 µM (LRRK2 mutant (G2019S)): 8.2%
remaining binding at 0.5 µM (LRRK2 mutant (G2019S)): 1%
remaining binding at 0.1 µM (LRRK2 wild-type): 18%
remaining binding at 0.5 µM (LRRK2 wild-type): 3.5%
Compound: CCS(=O)(=O)N1CC[C@H](Nc2c(Br)cnc3[nH]c(-c4cc(C)n(-c5ccc(C(=O)N6CCOCC6)cc5C)c4C)nc23)C1 [Example 98, (4-(3-(6-bromo-7-(((S)-1-(ethylsulfonyl)pyrrolidine-3-yl)amino)-3H-imidazo[4,5-b]pyridine-2-yl)-2,5-dimethyl-1H-pyrrol-1-yl)-3-methylphenyl) (morpholino) methanone]
inhibition at 10 µM [1, 10]: > 50%
inhibition at 10 µM [8, 12]: 10 to 50%
inhibition at 10 µM ([3]; 10 μM, 72 hours, CCK-8): > 50%
inhibition at 10 µM [5, 11]: > 50%
inhibition at 10 µM [9, 13]: > 50%

Compound: CCS(=O)(=O)N1CC[C@H](Nc2c(Cl)cnc3nc(-c4cc(C)n(-c5cccc(C(=O)N6CCOCC6)c5)c4C)[nH]c23)C1 [Example 54, (S)-(3-(3-(6-chloro-7-((1-(ethylsulfonyl)pyrrolidine-3-yl)amino)-1H-imidazo[4,5-b]pyridine-2-yl)-2,5-dimethyl-1H-pyrrol-1-yl)phenyl) (morpholino) methanone]
remaining binding at 0.1 µM (LRRK2 mutant (G2019S)): 6.3%
remaining binding at 0.5 µM (LRRK2 mutant (G2019S)): 0.4%
remaining binding at 0.1 µM (LRRK2 wild-type): 24%
remaining binding at 0.5 µM (LRRK2 wild-type): 4.1%

Compound: CCS(=O)(=O)N1CC[C@H](Nc2c(Br)cnc3nc(-c4cc(C)n(-c5ccc(NC(=O)CN6CCN(C)CC6)cc5C)c4C)[nH]c23)C1 [Example 75, N-(4-(3-(6-bromo-7-(((S)-1-(ethylsulfonyl)pyrrolidine-3-yl)amino)-1H-imidazo[4,5-b]pyridine-2-yl)-2,5-dimethyl-1H-pyrrol-1-yl)-3-methylphenyl)-2-(4-methylpiperazine-1-yl) acetamide]
inhibition at 10 µM ([1]; 72 h, read-out: Cancer cell proliferation inhibitory activity Jurkat): > 50%
inhibition at 10 µM ([8]; A549, 72 h, read-out: Cancer cell proliferation inhibitory activity A549): > 50%
inhibition at 10 µM ([3]; 72 h): > 50%
IC50 (MLK3; read-out: IC50(nM) MLK3): 16 nM
inhibition at 10 µM ([5]; U-937, 72 h): > 50%
IC50 (MLK1): 30 nM
inhibition at 10 µM ([9]; 72 h, read-out: Cancer cell proliferation inhibitory activity Hs746T): > 50%
